Laboratory results taken from ChEMBL document CHEMBL5042544, “Discovery of a Potent and Selective ATAD2 Bromodomain Inhibitor with Antiproliferative Activity in Breast Cancer Models” (J Med Chem, 2022).

Key:
[1] = biological target: Bromodomain-containing protein 3 (Homo sapiens, UniProt Q15059); assay: Binding affinity to human BRD3 bromodomain 1 assessed as residual activity at 300 nM by BROMOscan method relative to control
[2] = biological target: Bromodomain-containing protein 4 (Homo sapiens, UniProt O60885); assay: Displacement of Alexafluor 647-JQ1 from GST-BRD4 BD1 BD2 (44 to 460 residues) (unknown origin) incubated for 60 mins by fluorescence polarization assay
Homo sapiens = organism: Homo sapiens; assay: Binding affinity to human ATAD2A assessed as residual activity at 300 nM by BROMOscan method relative to control
[3] = biological target: Bromodomain adjacent to zinc finger domain protein 2A (Homo sapiens) (UniProt Q9UIF9); assay: Binding affinity to human BAZ2A bromodomain assessed as residual activity at 300 nM by BROMOscan method relative to control
[4] = biological target: Bromodomain adjacent to zinc finger domain protein 2B (Homo sapiens) (UniProt Q9UIF8); assay: Binding affinity to human BAZ2B bromodomain assessed as residual activity at 300 nM by BROMOscan method relative to control
Chain of Bromodomain adjacent to zinc finger domain protein 2B (Homo sapiens) (Q9UIF8 whole entry, the tested form may be a part): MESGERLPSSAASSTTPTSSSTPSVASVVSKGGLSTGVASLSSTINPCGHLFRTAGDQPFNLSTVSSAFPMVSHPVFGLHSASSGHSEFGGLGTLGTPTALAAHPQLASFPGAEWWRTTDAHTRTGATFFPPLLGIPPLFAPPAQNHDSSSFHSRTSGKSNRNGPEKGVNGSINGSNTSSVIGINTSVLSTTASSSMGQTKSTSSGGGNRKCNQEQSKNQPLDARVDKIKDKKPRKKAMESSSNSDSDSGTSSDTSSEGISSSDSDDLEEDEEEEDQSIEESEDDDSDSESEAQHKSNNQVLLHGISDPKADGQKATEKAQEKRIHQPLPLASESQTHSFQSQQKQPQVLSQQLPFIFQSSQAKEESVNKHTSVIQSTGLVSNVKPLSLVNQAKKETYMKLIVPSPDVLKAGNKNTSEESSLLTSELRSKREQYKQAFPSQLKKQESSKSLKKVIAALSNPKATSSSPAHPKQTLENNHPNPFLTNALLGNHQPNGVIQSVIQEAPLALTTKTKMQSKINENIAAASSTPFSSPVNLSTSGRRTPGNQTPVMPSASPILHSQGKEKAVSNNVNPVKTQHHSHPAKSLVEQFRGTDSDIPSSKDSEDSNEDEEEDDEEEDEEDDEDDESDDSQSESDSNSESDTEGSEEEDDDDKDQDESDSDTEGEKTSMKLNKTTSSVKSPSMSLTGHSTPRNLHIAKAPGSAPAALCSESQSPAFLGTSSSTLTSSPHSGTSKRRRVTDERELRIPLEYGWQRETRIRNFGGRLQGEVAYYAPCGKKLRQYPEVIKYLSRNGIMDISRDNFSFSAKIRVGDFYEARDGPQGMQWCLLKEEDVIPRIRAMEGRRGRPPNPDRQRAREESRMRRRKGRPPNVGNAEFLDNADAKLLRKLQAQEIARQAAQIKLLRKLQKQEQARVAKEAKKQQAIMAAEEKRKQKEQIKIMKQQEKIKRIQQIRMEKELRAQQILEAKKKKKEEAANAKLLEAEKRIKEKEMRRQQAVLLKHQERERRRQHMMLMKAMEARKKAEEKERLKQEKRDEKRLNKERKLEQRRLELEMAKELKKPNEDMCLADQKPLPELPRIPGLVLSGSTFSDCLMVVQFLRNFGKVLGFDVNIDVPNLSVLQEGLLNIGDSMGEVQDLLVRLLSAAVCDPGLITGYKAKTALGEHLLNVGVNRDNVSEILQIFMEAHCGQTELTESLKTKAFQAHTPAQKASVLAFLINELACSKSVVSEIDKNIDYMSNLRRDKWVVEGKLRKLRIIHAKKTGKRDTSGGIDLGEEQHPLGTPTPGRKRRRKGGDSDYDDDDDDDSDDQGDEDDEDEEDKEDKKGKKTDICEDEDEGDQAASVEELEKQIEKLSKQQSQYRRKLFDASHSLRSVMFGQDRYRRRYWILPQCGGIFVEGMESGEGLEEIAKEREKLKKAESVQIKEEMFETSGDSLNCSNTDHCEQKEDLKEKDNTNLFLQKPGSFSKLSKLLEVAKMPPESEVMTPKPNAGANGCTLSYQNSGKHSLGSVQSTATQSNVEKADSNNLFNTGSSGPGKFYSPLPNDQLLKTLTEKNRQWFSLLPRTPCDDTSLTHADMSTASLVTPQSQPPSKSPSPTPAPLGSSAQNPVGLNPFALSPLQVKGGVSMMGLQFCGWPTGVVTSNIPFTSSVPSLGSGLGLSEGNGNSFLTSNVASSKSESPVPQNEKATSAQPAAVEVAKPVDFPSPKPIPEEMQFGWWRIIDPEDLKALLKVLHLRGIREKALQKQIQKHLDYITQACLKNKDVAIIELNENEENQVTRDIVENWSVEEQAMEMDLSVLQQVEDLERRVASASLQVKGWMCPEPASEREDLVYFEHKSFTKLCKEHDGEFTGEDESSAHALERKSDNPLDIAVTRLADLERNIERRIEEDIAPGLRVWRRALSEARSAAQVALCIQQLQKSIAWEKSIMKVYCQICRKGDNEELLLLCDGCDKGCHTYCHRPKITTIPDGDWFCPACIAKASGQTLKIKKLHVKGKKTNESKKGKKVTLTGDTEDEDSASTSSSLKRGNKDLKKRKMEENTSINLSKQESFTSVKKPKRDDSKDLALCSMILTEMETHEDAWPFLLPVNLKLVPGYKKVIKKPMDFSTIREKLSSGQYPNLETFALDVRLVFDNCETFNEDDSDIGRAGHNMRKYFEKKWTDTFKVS

[5] = biological target: Bromodomain-containing protein 7 (Homo sapiens) (UniProt Q9NPI1); assay: Binding affinity to human BRD7 bromodomain assessed as residual activity at 300 nM by BROMOscan method relative to control
Chain of Bromodomain-containing protein 7 (Homo sapiens) (Q9NPI1 whole entry): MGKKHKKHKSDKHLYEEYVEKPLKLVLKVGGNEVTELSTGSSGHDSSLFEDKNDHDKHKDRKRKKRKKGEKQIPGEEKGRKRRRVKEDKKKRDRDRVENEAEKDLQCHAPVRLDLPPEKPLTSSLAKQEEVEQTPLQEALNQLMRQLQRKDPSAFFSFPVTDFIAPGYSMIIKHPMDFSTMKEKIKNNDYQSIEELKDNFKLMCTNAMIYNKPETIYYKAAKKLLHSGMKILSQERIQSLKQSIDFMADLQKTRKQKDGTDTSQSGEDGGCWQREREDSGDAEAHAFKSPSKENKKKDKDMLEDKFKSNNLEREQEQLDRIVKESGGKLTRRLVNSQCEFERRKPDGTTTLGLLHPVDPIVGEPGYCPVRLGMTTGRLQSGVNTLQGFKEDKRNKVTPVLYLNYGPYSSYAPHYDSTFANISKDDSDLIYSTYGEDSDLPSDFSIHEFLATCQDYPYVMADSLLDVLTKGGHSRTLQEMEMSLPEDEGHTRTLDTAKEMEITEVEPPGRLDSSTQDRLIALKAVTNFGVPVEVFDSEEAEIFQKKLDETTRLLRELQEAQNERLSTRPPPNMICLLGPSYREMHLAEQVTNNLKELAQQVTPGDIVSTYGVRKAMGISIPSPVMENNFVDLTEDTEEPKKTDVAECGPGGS

[6] = biological target: Bromodomain and PHD finger-containing protein 3 (Homo sapiens) (UniProt Q9ULD4); assay: Binding affinity to human […] bromodomain assessed as residual activity at 300 nM by BROMOscan method relative to control
[7] = biological target: Chromatin remodeling regulator CECR2 (Homo sapiens, UniProt Q9BXF3); assay: Binding affinity to human CECR2 bromodomain assessed as residual activity at 300 nM by BROMOscan method relative to control
[8] = biological target: Nucleosome-remodeling factor subunit BPTF (Homo sapiens, UniProt Q12830); assay: Binding affinity to human FALZ bromodomain assessed as residual activity at 300 nM by BROMOscan method relative to control
[9] = biological target: T1, Transcription initiation factor TFIID subunit 1 (Homo sapiens, UniProt P21675); assay: Binding affinity to human TAF1 bromodomain 2 assessed as residual activity at 300 nM by BROMOscan method relative to control
T1 sequence (P21675 whole entry): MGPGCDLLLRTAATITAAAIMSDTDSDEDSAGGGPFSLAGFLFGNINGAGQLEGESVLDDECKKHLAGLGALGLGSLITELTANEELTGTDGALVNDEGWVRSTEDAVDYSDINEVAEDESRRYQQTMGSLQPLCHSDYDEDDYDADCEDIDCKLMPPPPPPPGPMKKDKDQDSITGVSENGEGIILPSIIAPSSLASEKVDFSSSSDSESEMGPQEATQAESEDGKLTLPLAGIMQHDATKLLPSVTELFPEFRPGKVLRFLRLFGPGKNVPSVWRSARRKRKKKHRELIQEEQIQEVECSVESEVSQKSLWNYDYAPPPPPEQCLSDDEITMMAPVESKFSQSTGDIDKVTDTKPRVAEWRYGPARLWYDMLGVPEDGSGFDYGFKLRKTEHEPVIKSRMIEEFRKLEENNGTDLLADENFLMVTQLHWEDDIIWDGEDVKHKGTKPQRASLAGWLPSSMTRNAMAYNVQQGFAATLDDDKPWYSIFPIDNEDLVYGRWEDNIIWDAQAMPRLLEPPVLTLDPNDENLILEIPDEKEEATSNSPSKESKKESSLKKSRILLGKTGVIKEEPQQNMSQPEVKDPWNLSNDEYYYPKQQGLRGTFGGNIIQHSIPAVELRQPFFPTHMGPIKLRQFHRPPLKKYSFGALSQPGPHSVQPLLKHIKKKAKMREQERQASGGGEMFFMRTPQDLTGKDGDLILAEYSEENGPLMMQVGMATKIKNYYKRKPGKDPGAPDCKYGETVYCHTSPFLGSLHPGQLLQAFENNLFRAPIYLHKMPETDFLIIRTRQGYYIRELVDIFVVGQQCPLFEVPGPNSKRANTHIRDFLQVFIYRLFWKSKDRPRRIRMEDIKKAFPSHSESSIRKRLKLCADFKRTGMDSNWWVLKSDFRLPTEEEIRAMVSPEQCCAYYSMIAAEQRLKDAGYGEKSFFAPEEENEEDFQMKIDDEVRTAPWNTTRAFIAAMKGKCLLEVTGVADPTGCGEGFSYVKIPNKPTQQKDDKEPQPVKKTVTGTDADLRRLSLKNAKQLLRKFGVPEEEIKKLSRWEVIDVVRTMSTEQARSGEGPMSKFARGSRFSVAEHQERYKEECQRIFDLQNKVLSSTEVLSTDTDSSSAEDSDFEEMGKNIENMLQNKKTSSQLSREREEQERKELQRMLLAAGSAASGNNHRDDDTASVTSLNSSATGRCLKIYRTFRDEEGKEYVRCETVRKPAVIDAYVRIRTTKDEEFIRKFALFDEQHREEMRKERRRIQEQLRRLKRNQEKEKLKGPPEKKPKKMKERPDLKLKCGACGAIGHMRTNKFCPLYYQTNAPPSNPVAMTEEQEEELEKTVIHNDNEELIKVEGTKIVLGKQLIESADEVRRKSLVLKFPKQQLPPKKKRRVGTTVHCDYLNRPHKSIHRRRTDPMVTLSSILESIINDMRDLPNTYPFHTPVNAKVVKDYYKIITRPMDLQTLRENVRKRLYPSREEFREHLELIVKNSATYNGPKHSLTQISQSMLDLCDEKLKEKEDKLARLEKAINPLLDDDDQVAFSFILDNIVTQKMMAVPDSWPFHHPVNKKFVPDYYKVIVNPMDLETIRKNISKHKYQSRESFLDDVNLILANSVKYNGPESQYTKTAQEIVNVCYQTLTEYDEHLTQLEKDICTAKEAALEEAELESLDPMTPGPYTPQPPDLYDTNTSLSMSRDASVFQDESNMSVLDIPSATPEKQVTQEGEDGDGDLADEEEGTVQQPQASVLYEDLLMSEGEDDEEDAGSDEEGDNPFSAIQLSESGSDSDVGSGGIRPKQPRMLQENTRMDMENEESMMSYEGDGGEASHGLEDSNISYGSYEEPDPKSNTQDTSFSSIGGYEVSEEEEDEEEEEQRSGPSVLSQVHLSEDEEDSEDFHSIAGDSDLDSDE

[10] = biological target: Transcription initiation factor TFIID subunit 1-like (Homo sapiens) (UniProt Q8IZX4); assay: Binding affinity to human TAF1L bromodomain 2 assessed as residual activity at 300 nM by BROMOscan method relative to control
[11] = biological target: Transcription intermediary factor 1-alpha (Homo sapiens) (UniProt O15164); assay: Binding affinity to human TRIM24 bromodomain assessed as residual activity at 300 nM by BROMOscan method relative to control
[12] = biological target: ATPase family AAA domain-containing protein 2B (Homo sapiens, UniProt Q9ULI0); assay: Binding affinity to human ATAD2B bromodomain assessed as dissociation constant by BROMOscan method
[13] = biological target: Bromodomain-containing protein 2 (Homo sapiens, UniProt P25440); assay: Binding affinity to human BRD2 bromodomain 2 assessed as dissociation constant by BROMOscan method
[14] = biological target: Histone acetyltransferase p300 (Homo sapiens, UniProt Q09472); assay: Binding affinity to human EP300 bromodomain assessed as dissociation constant by BROMOscan method
Protein polybromo-1 = Protein polybromo-1 (Homo sapiens, UniProt Q86U86); assay: Binding affinity to human PBRM1 bromodomain 5 assessed as dissociation constant by BROMOscan method
[15] = biological target: T1, Transcription initiation factor TFIID subunit 1; assay: Binding affinity to human TAF1 bromodomain 2 assessed as dissociation constant by BROMOscan method
[16] = biological target: T2, ATPase family AAA domain-containing protein 2 (Homo sapiens, UniProt Q6PL18); assay: Binding affinity to ATAD2 bromodomain (981 to 1108 residues) (unknown origin) expressed in Escherichia coli BL21 (DE3) by BROMOscan method
T2 sequence (Q6PL18 whole entry): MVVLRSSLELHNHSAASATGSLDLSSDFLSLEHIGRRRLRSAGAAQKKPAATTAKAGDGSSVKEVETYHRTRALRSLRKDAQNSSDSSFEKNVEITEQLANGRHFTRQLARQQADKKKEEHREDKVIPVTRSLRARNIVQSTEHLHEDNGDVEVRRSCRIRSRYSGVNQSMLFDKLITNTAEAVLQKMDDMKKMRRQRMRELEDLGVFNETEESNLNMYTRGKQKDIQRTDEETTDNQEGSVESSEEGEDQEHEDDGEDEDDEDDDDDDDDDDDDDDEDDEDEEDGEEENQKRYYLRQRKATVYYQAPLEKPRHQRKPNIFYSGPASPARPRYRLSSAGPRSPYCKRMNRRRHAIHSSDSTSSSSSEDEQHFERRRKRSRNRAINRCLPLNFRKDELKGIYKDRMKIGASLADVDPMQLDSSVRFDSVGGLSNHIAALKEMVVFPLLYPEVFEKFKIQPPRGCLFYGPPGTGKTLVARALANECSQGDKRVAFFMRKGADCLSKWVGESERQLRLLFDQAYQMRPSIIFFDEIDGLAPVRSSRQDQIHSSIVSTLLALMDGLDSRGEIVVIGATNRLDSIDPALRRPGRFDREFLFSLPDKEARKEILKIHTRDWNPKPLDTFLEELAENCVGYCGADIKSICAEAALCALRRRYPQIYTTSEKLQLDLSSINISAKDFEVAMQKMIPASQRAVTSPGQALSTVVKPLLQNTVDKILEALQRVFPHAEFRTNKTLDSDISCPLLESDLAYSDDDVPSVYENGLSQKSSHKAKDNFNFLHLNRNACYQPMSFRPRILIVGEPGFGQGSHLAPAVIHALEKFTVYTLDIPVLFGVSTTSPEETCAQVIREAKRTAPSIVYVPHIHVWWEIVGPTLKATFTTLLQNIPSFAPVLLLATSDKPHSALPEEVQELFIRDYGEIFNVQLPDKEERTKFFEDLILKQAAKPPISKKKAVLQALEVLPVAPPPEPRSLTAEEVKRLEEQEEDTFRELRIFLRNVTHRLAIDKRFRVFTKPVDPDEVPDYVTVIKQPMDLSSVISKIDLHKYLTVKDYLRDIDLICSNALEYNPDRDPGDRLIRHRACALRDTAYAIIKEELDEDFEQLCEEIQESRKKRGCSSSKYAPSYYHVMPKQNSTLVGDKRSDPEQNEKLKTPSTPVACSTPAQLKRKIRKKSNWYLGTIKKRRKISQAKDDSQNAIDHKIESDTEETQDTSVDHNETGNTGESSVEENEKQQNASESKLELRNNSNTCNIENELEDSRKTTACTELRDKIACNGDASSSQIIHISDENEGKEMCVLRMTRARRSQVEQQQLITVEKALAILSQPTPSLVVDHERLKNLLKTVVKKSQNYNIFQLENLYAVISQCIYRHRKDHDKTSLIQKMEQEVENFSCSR

T47D = assay: Antiproliferative activity against human T-47D cells expressing ATAD2 assessed as inhibition of colony formation at 0.01 to 10 uM measured after 14 to 21 days by AlamarBlue staining based colony formation assay; assay type: functional, cell-based; settings: dose 0.01-10 µM, time 14-21 day

Cc1nnc2c(NC3CCN(CC(C)(C)F)CC3)cc(C(=O)N3[C@@H]4c5ccccc5C[C@H]3C(=O)N[C@@H]4C(C)C)nn12
Activity [1]: 90%
IC50 [2]: 20 µM
Activity (Homo sapiens): 0%
Activity [3]: 82%
Activity [4]: 75%
Activity [5]: 73%
Activity [6]: 66%
Activity [7]: 59%
Activity [8]: 53%
Activity [9]: 44%
Activity [10]: 82%
Activity [11]: 86%
Kd [12]: 0.00794 µM
Kd [13]: 0.2 µM
Kd [14]: > 3.16 µM
Kd (Protein polybromo-1): > 0.316 µM
Kd [15]: 0.158 µM
Kd [16]: 0.00126 µM
Activity (T47D): Dose-Dependent Effect
